Measured values published in ChEMBL document CHEMBL1128738, “Sigma ligands with subnanomolar affinity and preference for the sigma 2 binding site. 1. 3-(omega-aminoalkyl)-1H-indoles” (J Med Chem, 1995).

Columns and labels:
[1] = biological target: Sigma non-opioid intracellular receptor 1 (Rattus norvegicus, UniProt Q9R0C9); assay: Binding affinity towards sigma receptor binding site 1 using [3H](+)-pentazocine
[2] = biological target: Sigma non-opioid intracellular receptor 1 (Rattus norvegicus) (UniProt Q9R0C9); assay: Ratio of the binding affinities for sigma-1 and sigma 2 type receptors, ratio of IC50
Sigma 2 receptor = assay: Binding affinity towards sigma receptor binding site 2 using [3H]DTG of whole rat brain homogenates except cerebellum; format: tissue-based
[3] = biological target: T1, 5-hydroxytryptamine receptor 1A (Rattus norvegicus, UniProt P19327); assay: Binding affinity towards 5-hydroxytryptamine 1A receptor binding site using [3H]8-OH-DPAT.
T1 sequence (P19327 whole entry): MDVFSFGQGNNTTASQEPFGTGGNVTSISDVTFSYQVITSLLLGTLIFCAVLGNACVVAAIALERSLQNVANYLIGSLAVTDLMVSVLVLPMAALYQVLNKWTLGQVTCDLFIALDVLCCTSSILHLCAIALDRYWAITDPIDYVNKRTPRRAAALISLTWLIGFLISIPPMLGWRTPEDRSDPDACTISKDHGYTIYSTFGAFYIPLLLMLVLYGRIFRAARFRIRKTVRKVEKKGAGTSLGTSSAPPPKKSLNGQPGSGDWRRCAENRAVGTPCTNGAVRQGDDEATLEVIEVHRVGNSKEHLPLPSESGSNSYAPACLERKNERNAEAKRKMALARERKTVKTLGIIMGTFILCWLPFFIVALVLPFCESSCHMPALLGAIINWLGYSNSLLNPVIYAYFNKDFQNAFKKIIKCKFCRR

[4] = biological target: 5-hydroxytryptamine receptor 2A (Rattus norvegicus, UniProt P14842); assay: Binding affinity towards 5-hydroxytryptamine 2A receptor binding site using [3H]ketanserin.
[5] = biological target: T2, Adrenergic receptor alpha-1 (Rattus norvegicus, UniProt P15823+P23944+P43140); assay: Binding affinity for Alpha-1 adrenergic receptor with [3H]prazosin; format: protein assay
T2 sequence (P15823 whole entry): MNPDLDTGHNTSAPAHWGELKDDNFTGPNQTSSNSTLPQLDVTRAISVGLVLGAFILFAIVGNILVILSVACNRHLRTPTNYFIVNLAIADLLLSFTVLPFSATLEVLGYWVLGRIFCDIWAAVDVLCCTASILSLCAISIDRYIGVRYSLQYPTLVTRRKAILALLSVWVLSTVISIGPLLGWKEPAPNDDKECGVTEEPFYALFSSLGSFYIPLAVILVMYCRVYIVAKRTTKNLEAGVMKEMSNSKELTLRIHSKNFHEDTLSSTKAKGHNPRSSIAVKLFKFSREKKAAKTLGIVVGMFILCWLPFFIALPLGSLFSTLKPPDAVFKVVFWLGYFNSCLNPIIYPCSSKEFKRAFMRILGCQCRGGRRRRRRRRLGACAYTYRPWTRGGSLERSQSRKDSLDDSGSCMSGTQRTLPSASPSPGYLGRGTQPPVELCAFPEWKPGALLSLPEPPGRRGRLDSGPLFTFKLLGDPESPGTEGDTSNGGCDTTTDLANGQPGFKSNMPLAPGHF
T2 sequence (P23944 whole entry): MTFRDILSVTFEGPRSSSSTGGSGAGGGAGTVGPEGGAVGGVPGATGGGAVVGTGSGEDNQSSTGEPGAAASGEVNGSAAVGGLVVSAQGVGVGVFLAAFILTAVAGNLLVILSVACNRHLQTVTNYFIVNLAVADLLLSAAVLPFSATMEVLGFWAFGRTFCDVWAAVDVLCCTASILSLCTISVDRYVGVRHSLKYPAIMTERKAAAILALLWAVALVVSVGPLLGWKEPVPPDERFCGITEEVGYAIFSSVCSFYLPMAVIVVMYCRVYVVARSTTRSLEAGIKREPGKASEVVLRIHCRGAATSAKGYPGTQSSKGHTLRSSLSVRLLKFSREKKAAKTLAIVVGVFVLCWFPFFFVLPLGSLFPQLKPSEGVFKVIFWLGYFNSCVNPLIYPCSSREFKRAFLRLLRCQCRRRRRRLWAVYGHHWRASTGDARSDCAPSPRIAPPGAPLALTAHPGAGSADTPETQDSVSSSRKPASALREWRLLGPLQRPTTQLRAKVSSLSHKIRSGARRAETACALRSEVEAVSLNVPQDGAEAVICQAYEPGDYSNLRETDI
T2 sequence (P43140 whole entry): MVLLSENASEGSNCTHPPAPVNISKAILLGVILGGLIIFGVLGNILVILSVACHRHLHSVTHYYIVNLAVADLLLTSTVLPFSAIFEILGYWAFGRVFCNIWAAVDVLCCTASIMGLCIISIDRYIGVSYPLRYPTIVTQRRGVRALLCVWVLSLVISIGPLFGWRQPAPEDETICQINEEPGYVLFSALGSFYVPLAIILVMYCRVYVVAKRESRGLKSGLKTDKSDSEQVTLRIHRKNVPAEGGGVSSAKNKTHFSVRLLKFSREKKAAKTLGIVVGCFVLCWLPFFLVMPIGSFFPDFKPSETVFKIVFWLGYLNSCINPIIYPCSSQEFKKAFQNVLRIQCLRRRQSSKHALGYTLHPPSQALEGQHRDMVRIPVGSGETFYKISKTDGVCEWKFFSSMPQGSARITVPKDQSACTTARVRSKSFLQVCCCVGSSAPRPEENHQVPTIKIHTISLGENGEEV

D(2) dopamine receptor = D(2) dopamine receptor (Rattus norvegicus, UniProt P61169); assay: Binding affinity towards Dopamine receptor D2 binding site using [3H]spiroperidol.
[6] = biological target: T2, Adrenergic receptor alpha-1; assay: Binding affinity towards Alpha-1 adrenergic receptor binding site using [3H]prazosin.; format: protein assay

Chain of 5-hydroxytryptamine receptor 2A (P14842 whole entry): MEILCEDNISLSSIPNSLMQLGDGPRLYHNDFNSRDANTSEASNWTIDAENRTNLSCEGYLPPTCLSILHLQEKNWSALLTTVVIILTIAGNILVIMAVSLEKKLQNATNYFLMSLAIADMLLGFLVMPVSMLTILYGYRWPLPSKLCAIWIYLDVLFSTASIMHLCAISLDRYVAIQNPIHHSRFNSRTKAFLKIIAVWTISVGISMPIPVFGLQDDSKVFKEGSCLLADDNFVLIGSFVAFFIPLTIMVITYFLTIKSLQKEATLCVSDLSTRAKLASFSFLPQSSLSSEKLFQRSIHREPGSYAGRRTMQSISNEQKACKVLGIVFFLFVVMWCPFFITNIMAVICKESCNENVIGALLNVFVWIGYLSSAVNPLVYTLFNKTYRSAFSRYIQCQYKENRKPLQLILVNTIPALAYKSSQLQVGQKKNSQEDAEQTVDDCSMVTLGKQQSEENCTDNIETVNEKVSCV
Chain of Sigma non-opioid intracellular receptor 1 (Rattus norvegicus) (Q9R0C9 whole entry): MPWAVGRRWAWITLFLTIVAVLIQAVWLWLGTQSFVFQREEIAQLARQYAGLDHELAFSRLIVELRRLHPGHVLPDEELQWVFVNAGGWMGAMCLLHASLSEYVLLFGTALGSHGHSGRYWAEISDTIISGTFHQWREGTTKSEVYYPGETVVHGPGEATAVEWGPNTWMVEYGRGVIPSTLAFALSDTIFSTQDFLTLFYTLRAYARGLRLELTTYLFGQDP
Chain of Sigma non-opioid intracellular receptor 1 (Q9R0C9 whole entry): as above
Chain of D(2) dopamine receptor (P61169 whole entry): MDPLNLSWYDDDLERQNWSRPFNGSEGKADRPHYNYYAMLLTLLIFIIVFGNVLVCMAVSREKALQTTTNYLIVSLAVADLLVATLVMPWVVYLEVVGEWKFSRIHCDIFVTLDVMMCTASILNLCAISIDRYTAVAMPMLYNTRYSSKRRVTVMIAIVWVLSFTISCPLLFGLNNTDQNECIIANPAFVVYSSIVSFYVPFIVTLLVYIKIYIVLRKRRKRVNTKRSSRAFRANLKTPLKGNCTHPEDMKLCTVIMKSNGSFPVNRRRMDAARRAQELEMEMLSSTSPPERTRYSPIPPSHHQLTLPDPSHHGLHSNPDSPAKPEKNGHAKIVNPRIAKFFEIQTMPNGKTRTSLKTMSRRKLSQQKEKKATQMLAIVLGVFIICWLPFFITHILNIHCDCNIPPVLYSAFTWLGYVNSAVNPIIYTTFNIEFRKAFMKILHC

| Compound | IC50 [1] | Ratio [2] | IC50 (Sigma 2 receptor) | IC50 [3] | IC50 [4] | IC50 [5] | IC50 (D(2) dopamine receptor) | IC50 [6] |
| --- | --- | --- | --- | --- | --- | --- | --- | --- |
| Cn1cc(CCCCN2CCC3(CC2)OCc2ccccc23)c2ccccc21 | 2.1 nM | 7 | 0.3 nM | – | – | – | – | – |
| Fc1ccc(-n2cc(CN3CCC4(CC3)OCc3ccccc34)c3ccccc32)cc1 | 3 nM | 0.64 | 4.7 nM | – | – | – | – | – |
| CS(=O)(=O)n1cc(CCCCN2CCC3(CC2)OCc2ccccc23)c2ccccc21 | 1.3 nM | 26 | 0.05 nM | – | – | – | – | – |
| Fc1ccc(-n2cc(CCCCN3CCC4(CC3)OCc3ccccc34)c3ccccc32)cc1 [SIRAMESINE] | – | – | – | 21000 nM | 2000 nM | 330 nM | 800 nM | – |
| Fc1ccc(-n2cc(CCCN3CCC4(CC3)OCc3ccccc34)c3ccccc32)cc1 | 10 nM | 3.6 | 2.8 nM | – | – | – | – | – |
| Fc1ccc(N2CCN(CCCCc3cn(-c4ccc(F)cc4)c4ccccc34)CC2)cc1 | 440 nM | – | 7.5 nM | > 10000 nM | 250 nM | – | 3000 nM | 420 nM |
| Fc1ccc(C2CCN(CCCCc3c[nH]c4ccccc34)CC2)cc1 | 1.4 nM | – | 4 nM | 27 nM | 34 nM | – | 160 nM | 20 nM |
| c1ccc(CN2CCC3(CCCc4ccccc43)CC2)cc1 | 0.26 nM | – | 12 nM | > 100000 nM | 7100 nM | – | – | 1000 nM |
| c1ccc(Cn2cc(CCCCN3CCC4(CC3)OCc3ccccc34)c3ccccc32)cc1 | 5.2 nM | 11 | 0.48 nM | – | – | – | – | – |
| c1ccc2c(c1)COC21CCN(CCCCc2cn(-c3ccsc3)c3ccccc23)CC1 | 7 nM | 28 | 0.25 nM | – | – | – | – | – |
| c1csc(-n2cc(CCCCN3CCC4(CC3)OCc3ccccc34)c3ccccc32)c1 | 7.7 nM | 32 | 0.24 nM | – | – | – | – | – |
| Fc1ccc(-n2cc(CCCCN3CCC(c4ccccc4)CC3)c3ccccc32)cc1 | 44 nM | 100 | 0.44 nM | – | – | – | – | – |
| Fc1ccc(C2=CC3CCC(C2)N3CCCCc2cn(-c3ccc(F)cc3)c3ccccc23)cc1 (stereo not given) | 1200 nM | – | 2.5 nM | > 10000 nM | 3700 nM | – | 8000 nM | 350 nM |
| Fc1ccc(C2=CCN(CCCCc3c[nH]c4ccccc34)CC2)cc1 | 7.5 nM | – | 2.3 nM | 71 nM | 27 nM | – | 51 nM | 24 nM |
| COc1ccccc1C1CCN(CCCCc2c[nH]c3ccccc23)CC1 | 4.5 nM | – | 3.3 nM | 56 nM | 83 nM | – | 20 nM | 11 nM |
| c1ccc2c(c1)COC21CCN(CCCCc2cn(-c3nccs3)c3ccccc23)CC1 | 14 nM | 74 | 0.19 nM | – | – | – | – | – |
| CC(=O)n1cc(CCCCN2CCC3(CC2)OCc2ccccc23)c2ccccc21 | 5.7 nM | 27 | 0.21 nM | – | – | – | – | – |
| OC(CCCN1CCN(c2ncc(F)cn2)CC1)c1ccc(F)cc1 (stereo not given) [BMY-14802] | – | – | – | – | 830 nM | – | 8400 nM | 1500 nM |
| Fc1ccc(-n2cc(CCN3CCC4(CC3)OCc3ccccc34)c3ccccc32)cc1 | 15 nM | 5 | 3 nM | – | – | – | – | – |
| O=C(CC1CCN(CC2CC2)CC1)c1ccc(F)cc1 | – | – | – | 44000 nM | 66 nM | – | – | 21 nM |
| Fc1ccc(C2CCN(CCCCc3cn(-c4ccc(F)cc4)c4ccccc34)CC2)cc1 | – | – | 0.27 nM | 22000 nM | 270 nM | – | 4200 nM | 220 nM |
| Cc1ccc(S(=O)(=O)n2cc(CCCCN3CCC4(CC3)OCc3ccccc34)c3ccccc32)cc1 | 10 nM | 59 | 0.17 nM | – | – | – | – | – |
| Fc1ccc(-n2cc(CCCCN3CCN(c4ccccc4)CC3)c3ccccc32)cc1 | 27 nM | 39 | 0.69 nM | – | – | – | – | – |
| COc1ccccc1N1CCN(CCCCc2c[nH]c3ccccc23)CC1 | 14 nM | – | 21 nM | – | 150 nM | – | 15 nM | 2.7 nM |
| c1ccc2c(c1)COC21CCN(CCCCc2c[nH]c3ccccc23)CC1 | 2.5 nM | – | 0.41 nM | 130 nM | 360 nM | – | 1300 nM | 30 nM |
| c1ccc(C2CCN(CCCCc3c[nH]c4ccccc34)CC2)cc1 | 1.5 nM | – | 0.48 nM | 110 nM | 25 nM | – | 45 nM | 14 nM |
| c1ccc2c(c1)COC21CCN(CCCCc2cn(-c3ccncc3)c3ccccc23)CC1 | 14 nM | 34 | 0.41 nM | – | – | – | – | – |
| Fc1ccc(N2CCN(CCCCc3c[nH]c4ccccc34)CC2)cc1 | 5.6 nM | – | 1.3 nM | 37 nM | 14 nM | – | 180 nM | 12 nM |
